Test results from publication PMC12657942, “Measurement and modeling of rizatriptan in supercritical CO2 for pharmaceutical processing” (Scientific Reports, 2025).
≈ marks a conversion by molar mass, not a printed value.

Experiment: Solubility of rizatriptan in supercritical CO2, static gravimetric method
Format: physicochemical
Procedure: A specialized high-pressure system is employed to measure the solubility of rizatriptan using gravimetric techniques in a supercritical CO2[6]. A 200 mL vessel capable of withstanding pressures up to 35 MPa and temperatures up to 423 K is prepared with leak-free seals, valves, and fittings. All valves and connectors were 1/8 inch in size. The system’s pressure and temperature sensors are calibrated for accuracy. Next, 2000 mg of rizatriptan powder is weighed precisely using an analytical balance with 0.01 mg of sensitivity. The powder is then compacted into 5-mm diameter tablets to ensure uniformity and structural integrity. The tablets are placed in a basket inside the vessel to maximize their exposure to SC-CO2. CO2 is introduced gradually using a high-precision pump (SC-1000, SUPEREX), with the pressure increased in 0.05 MPa increments to maintain stability. The pressure is monitored and held within ± 0.01 MPa. Temperature is controlled within ± 0.1 K using a thermocouple, and the mixture is stirred at 250 rpm to ensure uniformity. […] The pressure and temperature indicators are checked to ensure stability. After equilibration, the vessel is carefully depressurized to ambient conditions to halt dissolution without losing the sample. The remaining tablets are then removed and cleaned of residual CO2. If needed, they are dried in a desiccator. The undissolved drug is weighed using a high-precision balance. The experiment is replicated at least three times to calculate the mean solubility and standard deviation. The following formula was used to calculate the mass of dissolved rizatriptan:1
Include the molecular weights of rizatriptan ([…]) and CO2 (44.01 g/mol) in the mole fraction calculations.2 3 4 5
The measurements were conducted at four isotherms (308.2 K, 318.2 K, 328.2 K, and 338.2 K) and […] pressure points (12, 15, 18, 21, 24, 27, 30 MPa). Table 3 documents the experimental conditions, including temperature, pressure, SC-CO2 density, mole fraction, standard deviation, and solubility in grams per liter.

- mole fraction in SC-CO2 (308.2 K, 12 MPa): 0.09 × 10^−4
- mole fraction in SC-CO2 (308.2 K, 30 MPa): 0.286 × 10^−4
- mole fraction in SC-CO2 (328.2 K, 12 MPa): 0.45 × 10^−5
- mole fraction in SC-CO2 (328.2 K, 30 MPa): 3.80 × 10^−5
- mole fraction in SC-CO2 (338.2 K, 12 MPa): 0.024 × 10^−4
- mole fraction in SC-CO2 (338.2 K, 30 MPa): 0.419 × 10^−4
- mole fraction y in SC-CO2 (338.2 K, 30 MPa): 4.19 × 10^−5
- Experimental mole fraction (y) in supercritical carbon dioxide, y × 10^4 (T 308.0 K (text 308.2 K), P 12 MPa, ρCO2 768.52 kg/m^3): 0.090 × 10^4
- Experimental mole fraction (y) in supercritical carbon dioxide, y × 10^4 (T 308.0 K (text 308.2 K), P 15 MPa, ρCO2 816.10 kg/m^3): 0.121 × 10^4
- Experimental mole fraction (y) in supercritical carbon dioxide, y × 10^4 (T 308.0 K (text 308.2 K), P 18 MPa, ρCO2 816.10 kg/m^3): 0.141 × 10^4
- Experimental mole fraction (y) in supercritical carbon dioxide, y × 10^4 (T 308.0 K (text 308.2 K), P 21 MPa, ρCO2 874.55 kg/m^3): 0.177 × 10^4
- Experimental mole fraction (y) in supercritical carbon dioxide, y × 10^4 (T 308.0 K (text 308.2 K), P 24 MPa, ρCO2 895.66 kg/m^3): 0.227 × 10^4
- Experimental mole fraction (y) in supercritical carbon dioxide, y × 10^4 (T 308.0 K (text 308.2 K), P 27 MPa, ρCO2 913.70 kg/m^3): 0.258 × 10^4
- Experimental mole fraction (y) in supercritical carbon dioxide, y × 10^4 (T 308.0 K (text 308.2 K), P 30 MPa, ρCO2 929.85 kg/m^3): 0.286 × 10^4
- Experimental mole fraction (y) in supercritical carbon dioxide, y × 10^4 (T 318.0 K (text 318.2 K), P 12 MPa, ρCO2 659.80 kg/m^3): 0.069 × 10^4
- Experimental mole fraction (y) in supercritical carbon dioxide, y × 10^4 (T 318.0 K (text 318.2 K), P 15 MPa, ρCO2 743.83 kg/m^3): 0.126 × 10^4
- Experimental mole fraction (y) in supercritical carbon dioxide, y × 10^4 (T 318.0 K (text 318.2 K), P 18 MPa, ρCO2 790.29 kg/m^3): 0.162 × 10^4
- Experimental mole fraction (y) in supercritical carbon dioxide, y × 10^4 (T 318.0 K (text 318.2 K), P 21 MPa, ρCO2 823.80 kg/m^3): 0.215 × 10^4
- Experimental mole fraction (y) in supercritical carbon dioxide, y × 10^4 (T 318.0 K (text 318.2 K), P 24 MPa, ρCO2 850.15 kg/m^3): 0.281 × 10^4
- Experimental mole fraction (y) in supercritical carbon dioxide, y × 10^4 (T 318.0 K (text 318.2 K), P 27 MPa, ρCO2 872.14 kg/m^3): 0.322 × 10^4
- Experimental mole fraction (y) in supercritical carbon dioxide, y × 10^4 (T 318.0 K (text 318.2 K), P 30 MPa, ρCO2 890.90 kg/m^3): 0.339 × 10^4
- Experimental mole fraction (y) in supercritical carbon dioxide, y × 10^4 (T 328.0 K (text 328.2 K), P 12 MPa, ρCO2 506.75 kg/m^3): 0.045 × 10^4
- Experimental mole fraction (y) in supercritical carbon dioxide, y × 10^4 (T 328.0 K (text 328.2 K), P 15 MPa, ρCO2 654.94 kg/m^3): 0.099 × 10^4
- Experimental mole fraction (y) in supercritical carbon dioxide, y × 10^4 (T 328.0 K (text 328.2 K), P 18 MPa, ρCO2 724.13 kg/m^3): 0.176 × 10^4
- Experimental mole fraction (y) in supercritical carbon dioxide, y × 10^4 (T 328.0 K (text 328.2 K), P 21 MPa, ρCO2 768.74 kg/m^3): 0.241 × 10^4
- Experimental mole fraction (y) in supercritical carbon dioxide, y × 10^4 (T 328.0 K (text 328.2 K), P 24 MPa, ρCO2 801.92 kg/m^3): 0.302 × 10^4
- Experimental mole fraction (y) in supercritical carbon dioxide, y × 10^4 (T 328.0 K (text 328.2 K), P 27 MPa, ρCO2 828.51 kg/m^3): 0.353 × 10^4
- Experimental mole fraction (y) in supercritical carbon dioxide, y × 10^4 (T 328.0 K (text 328.2 K), P 30 MPa, ρCO2 850.83 kg/m^3): 0.380 × 10^4
- Experimental mole fraction (y) in supercritical carbon dioxide, y × 10^4 (T 338.0 K (text 338.2 K), P 12 MPa, ρCO2 384.17 kg/m^3): 0.024 × 10^4
- Experimental mole fraction (y) in supercritical carbon dioxide, y × 10^4 (T 338.0 K (text 338.2 K), P 15 MPa, ρCO2 555.33 kg/m^3): 0.136 × 10^4
- Experimental mole fraction (y) in supercritical carbon dioxide, y × 10^4 (T 338.0 K (text 338.2 K), P 18 MPa, ρCO2 651.28 kg/m^3): 0.213 × 10^4
- Experimental mole fraction (y) in supercritical carbon dioxide, y × 10^4 (T 338.0 K (text 338.2 K), P 21 MPa, ρCO2 709.59 kg/m^3): 0.279 × 10^4
- Experimental mole fraction (y) in supercritical carbon dioxide, y × 10^4 (T 338.0 K (text 338.2 K), P 24 MPa, ρCO2 751.27 kg/m^3): 0.334 × 10^4
- Experimental mole fraction (y) in supercritical carbon dioxide, y × 10^4 (T 338.0 K (text 338.2 K), P 27 MPa, ρCO2 783.19 kg/m^3): 0.388 × 10^4
- Experimental mole fraction (y) in supercritical carbon dioxide, y × 10^4 (T 338.0 K (text 338.2 K), P 30 MPa, ρCO2 809.68 kg/m^3): 0.419 × 10^4
- crossover pressure (solubility isotherms 308.2–338.2 K in SC-CO2): approximately 15 MPa
- solubility at 240 min (supercritical CO2, 308.2 K to 338.2 K, 12 to 30 MPa, read-out: solubility (dissolution concentration) in SC-CO2, range over all conditions): 8 to 302 µg/mL (≈ 29.7 to 1120 µM)
SMILES: CN(C)CCc1c[nH]c2ccc(Cn3cncn3)cc12 [Rizatriptan, Rizatriptan benzoate]
